Here are results for two compounds from patent US10259815B2, “Gabaergic ligands and their uses” (UWM Research Foundation, Inc., priority 2015, dated 2019).

Molecules are shown by their SMILES. “And” between values parts separate entries of the source, which are not always exact repeats. Equal values may be shown once.

By EC50 is commonly meant the concentration giving half of the maximal effect.

A short description of data set [1]: Liver microsomal stability, rat. The following applies: for Rat Liver microsome stability (reported in % remaining): 37° C., 4 μM compound, 30 minutes. In kind it is in vitro ADME. How it is done: (§1) In vitro metabolism studies were done in mouse, rat, human, and dogs cells (TABLE 2).
(§2) In vitro liver microsomal studies were completed to measure the stability of the compounds against degradation in various species' liver microsomes.
(§3) Compound was incubated in hepatic microsomes over a 30-minute incubation period at 37° C. Incubations both with and without NADPH (2 mM) were performed in a 96-well plate format. The reaction was initiated with the addition of substrate and was terminated by protein precipitation. All incubations were performed using a final substrate concentration of 4 μM in 50 mM sodium phosphate buffer, pH 7.4. The final organic solvent content was 0.5% acetonitrile and 0.02% DMSO. The amount of enzyme present was fixed at 1.11 mg/mL protein irrespective of the species of microsomes used. Samples were analyzed by LC/MS-MS to determine the percent loss in the NAPDH incubations relative to the NADPH free incubations.
Background: Microsomes from liver hold many membrane-bound enzymes, among them those of drug oxidation.

Data set [2] in a line: Liver microsomal stability, mouse. The following applies: for Mouse Liver microsome stability (reported in % remaining): 37° C., 4 μM compound, 30 minutes. In kind it is in vitro ADME. How it is done: as §1, §2, §3
Data set [3] has as its target T1, α3, β3, γ2 GABA A receptor (Homo sapiens, UniProt P18507+P34903).
T1 construct: host or cells: HEK-293, stably transfected
The data set can be described thus: FLIPR functional assay, α3 GABAA receptor subtype in HEK-293 cells. It is filed as cell-based. The following applies: α3 Binding EC50, FLIPR membrane potential, potentiation of GABA EC20. The source says: The FLIPR functional assay is used to determine the EC50 at the α1 and α3 GABAA receptor subtypes. A high EC50 for the α1 subtype would indicate a low chance of adverse effects, including sedation, ataxia, and muscle relaxation. A low α3 EC50 would indicate potential effectiveness as an anxiolytic, antihyperalgesic, and likely an anticonvulsant. See, for example, Liu et al. (Assay. Drug. Dev. Technol. 2008, 6, 781-6) and Joesch et al. (J. Biomol. Screen. 2008, 13, 218-28).
Compounds tested were synthesized internally and solubilized in DMSO at a 10 mM concentration. GABA was purchase from Sigma (#A2129) and prepared at 100 mM in water.
HEK-293 cells were stably transfected with the α1, β3, γ2 GABA A receptor subunits (GenBank accession numbers NM_000806.3, NM_000814.5, and NM_198904.1, respectively) or α3, β3, γ2 (NM_000808 for α3) where obtained from ChanTest Co. (Catalog # CT6216 and CT6218, respectively).
Cells were cultivated in Dulbeco's Modified Eagle's Medium (DMEM, Sigma D5796) supplemented with 10% Fetal Bovine Serum (FBS, Gibco 16000), 0.5 mg/mL Geneticin (Gibco), 0.04 mg/mL Hygromycin B (Gibco), 0.1 mg/mL Zeocin (Gibco) and 20 mM HEPES (Sigma). Cells were grown at 37° C. in a humidified atmosphere of 5% CO2. In the experiments described here frozen cells were used. For this purpose, cells were gown and maintained under confluency during 2-3 weeks and then frozen down at different cell densities using Recovery™ Cell Culture Freezing Medium (Gibco).
18 hours prior to the experiment, cells were quickly thawed at 37° C. and seeded on Poly-D-Lys 384 plates (Corning 356663) at a density of 25,000 cells/well and in 25 μL of complete cell medium as described above.
Membrane potential changes induced by the flux of ions through the receptor were measured as relative fluorescence units (RFU) using the Fluorometric Imaging Plate Reader (FLIPR Tetra®, Molecular Devices) and the FLIPR Membrane Potential Blue Assay kit (Molecular Devices). Prior to the addition of the compounds the medium was removed and cells were loaded with 20 μL of dye prepared in assay buffer composed of Hank's Balanced Salt Solution (HBSS with Ca^+2 and Mg^+2; Gibco 14025) with 20 mM Hepes. After 1 hour of incubation at room temperature (RT), the plate was placed into the FLIPR instrument and experiments were run adding first 10 μL from the 1st addition plate (compound plate) and after a 3 minutes incubation adding 20 μL of the 2nd addition or agonist plate. The response to this last GABA addition was monitored for another 3 minutes. […]
Data Analysis. The difference between the maximum and the minimum (Max-Min) fluorescence reached during the first addition or read interval and the second read interval were used for data analysis (agonist and potentiation, respectively). […]

Data set [4] in a line: Liver microsomal stability, dog. In kind it is in vitro ADME. To be noted: for Dog Liver microsome stability (reported in % remaining): 37° C., 4 μM compound, 30 minutes. The procedure: as §1, §2, §3
Data set [5] relates to Rats. The data set can be described thus: Food-maintained operant responding (rate response). It is filed as in vivo. To be noted: three-assay comparison. How it is done:
Food-maintained operant responding (rate response). Rats (n=7) were placed in a chamber consisting of two (one active) levers. Rats were trained to press a lever (left) for a food pellet under a multiple-cycle procedure. […] The active period was set on a FR10 schedule and rats could receive a maximum of 5 food pellets. The cue light was terminated either after 5 minutes or once 5 food pellets were delivered. After each active period (every 20 minutes), rats received the next dose of drug for a duration of 2 hours. Data (rate per minute) was collected using Graphic State 3.03 software and interface (Coulbourn Instruments Inc.)
(§4) Drugs. The following drugs were used: HZ166, KRM-II-18B, and KRM-II-81, and were dissolved in a mixture containing 20% Dimethyl sulfoxide (DMSO), 10% Emulphor-620 (Rhodia Inc.), and 70% of 0.9% saline. Flumazenil (purchased from Cayman Chemical Company, MI) was dissolved in a mixture containing 10% ethanol, 40% propylene glycol, and 50% sterile water. Midazolam (Akorn, Inc.) was dissolved in 0.9% saline. Doses were expressed as the weight of the drug in milligrams per kilogram of body weight and drugs were administered intraperitoneally.

Data set [6] relates to Rats. Nature of the data set: Horizontal wire test. It is filed as in vivo. The following applies: three-assay comparison. The procedure:
Horizontal wire test. Rats (n=10) were lifted by the tail and allowed to grasp a horizontally strung wire with their forepaws and released. The inability to complete this task (within 3 seconds) was recorded 20 minutes after each injection of drug.
as §4

A short description of data set [7]: Liver microsomal stability, human. It is filed as in vitro ADME. To be noted: for Human Liver microsome stability (reported in % remaining): 37° C., 4 μM compound, 30 minutes. How it is done: as §1, §2, §3

T1 sequence (P34903 29-492): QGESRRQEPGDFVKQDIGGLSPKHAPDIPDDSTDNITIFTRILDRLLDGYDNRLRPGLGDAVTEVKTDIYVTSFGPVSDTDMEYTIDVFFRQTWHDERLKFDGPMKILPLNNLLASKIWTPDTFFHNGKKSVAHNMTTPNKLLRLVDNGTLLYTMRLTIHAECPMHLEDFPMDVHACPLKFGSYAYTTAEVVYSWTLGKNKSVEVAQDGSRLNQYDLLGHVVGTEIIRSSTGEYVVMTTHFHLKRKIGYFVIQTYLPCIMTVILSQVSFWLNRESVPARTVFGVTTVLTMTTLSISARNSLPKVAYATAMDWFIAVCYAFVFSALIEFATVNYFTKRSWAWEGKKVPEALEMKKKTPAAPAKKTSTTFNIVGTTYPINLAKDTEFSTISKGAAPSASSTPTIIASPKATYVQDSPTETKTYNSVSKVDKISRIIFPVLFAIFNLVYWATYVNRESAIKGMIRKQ
T1 sequence (P28472 26-473 partner): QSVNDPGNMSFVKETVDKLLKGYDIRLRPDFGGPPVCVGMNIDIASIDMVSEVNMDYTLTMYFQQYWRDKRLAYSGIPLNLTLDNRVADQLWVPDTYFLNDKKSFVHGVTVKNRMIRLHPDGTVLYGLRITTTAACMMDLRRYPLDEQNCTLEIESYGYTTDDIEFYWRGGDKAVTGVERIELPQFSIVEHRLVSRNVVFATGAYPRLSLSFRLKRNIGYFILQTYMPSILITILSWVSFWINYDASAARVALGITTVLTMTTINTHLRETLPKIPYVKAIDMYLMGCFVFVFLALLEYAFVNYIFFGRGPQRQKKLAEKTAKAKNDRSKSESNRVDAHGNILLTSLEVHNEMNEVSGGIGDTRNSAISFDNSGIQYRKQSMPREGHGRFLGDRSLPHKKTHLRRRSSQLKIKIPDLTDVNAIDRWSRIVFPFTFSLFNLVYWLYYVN
T1 sequence (P18507 40-475): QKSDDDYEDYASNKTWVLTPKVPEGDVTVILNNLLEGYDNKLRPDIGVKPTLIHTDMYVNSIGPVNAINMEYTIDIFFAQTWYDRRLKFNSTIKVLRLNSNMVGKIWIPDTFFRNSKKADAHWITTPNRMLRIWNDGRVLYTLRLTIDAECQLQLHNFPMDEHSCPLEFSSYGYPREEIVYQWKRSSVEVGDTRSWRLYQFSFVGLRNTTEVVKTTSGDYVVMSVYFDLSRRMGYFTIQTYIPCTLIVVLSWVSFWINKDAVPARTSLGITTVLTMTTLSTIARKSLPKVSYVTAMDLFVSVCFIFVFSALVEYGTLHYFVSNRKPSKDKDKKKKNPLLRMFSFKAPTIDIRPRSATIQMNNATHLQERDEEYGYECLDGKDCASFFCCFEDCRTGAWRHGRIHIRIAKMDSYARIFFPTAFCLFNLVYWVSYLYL

Turning to `C#Cc1ccc2c(c1)C(c1ccccc1F)=NCc1c(-c3cnco3)ncn1-2` [KRM-II-18B, 5-(8-Ethynyl-6-(2-fluorophenyl)-4H-benzo[f]imidazo[1,5-a][1,4]diazepin-3-yl)oxazole], the “Rat Liver microsome stability (reported in % remaining)” value in data set [1] came to 68 % remaining. In data set [2], the “Mouse Liver microsome stability (reported in % remaining)” value is on record as 79 % remaining. In addition, the EC50 in data set [3] is 0.0112 µM. In addition, the “Dog Liver microsome stability (reported in % remaining)” value in data set [4] is 87 % remaining. In the data set on Rats [5], the “rate-suppressing activity, doses relative to antihyperalgesic doses” value is on record as “much larger doses”. Further, the “muscle-relaxant activity, doses relative to antihyperalgesic doses” value in the data set on Rats [6] was “much larger doses”. Moreover, the “Human Liver microsome stability (reported in % remaining)” value in data set [7] was found to be 78 % remaining.

Take `C#Cc1ccc2c(c1)C(c1ccccn1)=NCc1c(-c3cnco3)ncn1-2` [KRM-II-81, 5-(8-Ethynyl-6-(pyridin-2-yl)-4H-benzo[f]imidazo[1,5-a][1,4]diazepin-3-yl)oxazole]: in data set [1], the “Rat Liver microsome stability (reported in % remaining)” value worked out at 90 % remaining. For the same compound, in data set [1] (in vitro metabolism, rat), the “Rat % Metabolized” value is 9.6%. In data set [2], the “Mouse Liver microsome stability (reported in % remaining)” value was 90 % remaining. Also, the “Mouse % Metabolized” value in data set [2] (in vitro metabolism, mouse) stood at 10.1%. Also, in data set [3], the concentration giving a half-maximal response (EC50) was 0.97 µM and 0.937 µM. Also, the “Dog Liver microsome stability (reported in % remaining)” value in data set [4] was 94 % remaining. The “Dog % Metabolized” value in data set [4] (in vitro metabolism, dog) was determined as 5.9%. Further, the “rate-suppressing activity, doses relative to antihyperalgesic doses” value in the data set on Rats [5] is given as “much larger doses”. In the data set on Rats [6], the “muscle-relaxant activity, doses relative to antihyperalgesic doses” value is reported as “much larger doses”. For the same compound, the “Human Liver microsome stability (reported in % remaining)” value in data set [7] is 91 % remaining. Besides, the “Human % Metabolized” value in data set [7] (in vitro metabolism, human) was 8.6%.
